T1: Solute carrier family 22 member 1 (Mus musculus, UniProt O08966)
T1 sequence (O08966 whole entry): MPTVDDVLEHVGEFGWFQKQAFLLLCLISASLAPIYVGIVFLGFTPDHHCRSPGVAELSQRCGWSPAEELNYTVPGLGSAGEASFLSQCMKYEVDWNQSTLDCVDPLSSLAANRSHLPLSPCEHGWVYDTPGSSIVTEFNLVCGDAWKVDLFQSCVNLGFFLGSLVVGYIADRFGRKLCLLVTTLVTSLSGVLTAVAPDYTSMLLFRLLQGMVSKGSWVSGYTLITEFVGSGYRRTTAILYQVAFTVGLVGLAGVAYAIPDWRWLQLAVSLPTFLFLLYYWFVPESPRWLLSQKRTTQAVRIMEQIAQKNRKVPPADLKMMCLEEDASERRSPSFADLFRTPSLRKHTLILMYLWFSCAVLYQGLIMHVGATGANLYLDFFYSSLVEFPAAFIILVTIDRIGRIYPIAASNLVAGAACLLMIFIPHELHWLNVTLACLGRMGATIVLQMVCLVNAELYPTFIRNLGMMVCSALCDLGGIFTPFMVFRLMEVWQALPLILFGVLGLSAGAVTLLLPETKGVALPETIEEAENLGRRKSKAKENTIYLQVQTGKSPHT

T2: Solute carrier family 22 member 2 (Mus musculus, UniProt O70577)
T2 sequence (O70577 whole entry): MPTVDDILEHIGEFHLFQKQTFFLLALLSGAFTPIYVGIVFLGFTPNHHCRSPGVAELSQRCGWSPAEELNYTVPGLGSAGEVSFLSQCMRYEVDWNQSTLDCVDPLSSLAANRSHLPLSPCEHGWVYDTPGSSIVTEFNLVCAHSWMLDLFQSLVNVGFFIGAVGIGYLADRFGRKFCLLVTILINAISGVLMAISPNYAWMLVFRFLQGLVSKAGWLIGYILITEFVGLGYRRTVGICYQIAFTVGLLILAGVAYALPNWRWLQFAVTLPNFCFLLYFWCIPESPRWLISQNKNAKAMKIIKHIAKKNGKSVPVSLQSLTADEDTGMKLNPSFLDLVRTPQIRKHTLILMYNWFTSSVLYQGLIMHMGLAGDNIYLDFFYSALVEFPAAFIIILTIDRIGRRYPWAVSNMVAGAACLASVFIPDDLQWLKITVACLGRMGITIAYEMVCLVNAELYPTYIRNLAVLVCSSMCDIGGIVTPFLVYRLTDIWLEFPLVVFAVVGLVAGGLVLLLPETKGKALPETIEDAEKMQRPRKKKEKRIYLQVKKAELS


Columns and labels:
[1] = biological target: T1, Solute carrier family 22 member 1; test: (§1) TP_TRANSPORTER: inhibition of MPP+ uptake (MPP+: 1 uM) in Xenopus laevis oocytes; type: functional, cell-based, Oocyte
[2] = biological target: T2, Solute carrier family 22 member 2; test: as §1; type: functional, cell-based, Oocyte
[3] = substrate: C[n+]1ccc(-c2ccccc2)cc1; test: TP_TRANSPORTER: uptake in Xenopus laevis oocytes; type: functional, cell-based, Oocyte
[4] = substrate: CC[N+](CC)(CC)CC; test: cells, lysate or membranes named

| Molecule | IC50 [1] [µM] | IC50 [2] [µM] | Km [3] [µM] | Km [4] [µM] |
| --- | --- | --- | --- | --- |
| C[N+](C)(C)CCO [CHOLINE] | 55 | 217 |  |  |
| CN/C(=N/CCSCc1nc[nH]c1C)NC#N [CIMETIDINE] | 0.59 | 8 |  |  |
| CNC(=O)c1cccnc1 [NICOTINYL METHYLAMIDE] | 7340 | 13700 |  |  |
| CCN(CC)CCNC(=O)c1ccc(N)cc1 [PROCAINAMIDE] | 3.9 | 312 |  |  |
| C=C[C@H]1C[N@@]2CC[C@H]1C[C@H]2[C@H](O)c1ccnc2ccc(OC)cc12 [QUININE] |  | 2.8 |  |  |
| CC[N+](CC)(CC)CC [TETRYLAMMONIUM] | 0.54 | 3.5 |  |  |
| Solute carrier family 22 member 1 (Mus musculus) (protein) MPTVDDVLEHVGEFGWFQKQAFLLLCLISASLAPIYVGIVFLGFTPDHHCRSPGVAELSQRCGWSPAEELNYTVPGLGSAGEASFLSQCMKYEVDWNQSTLDCVDPLSSLAANRSHLPLSPCEHGWVYDTPGSSIVTEFNLVCGDAWKVDLFQSCVNLGFFLGSLVVGYIADRFGRKLCLLVTTLVTSLSGVLTAVAPDYTSMLLFRLLQGMVSKGSWVSGYTLITEFVGSGYRRTTAILYQVAFTVGLVGLAGVAYAIPDWRWLQLAVSLPTFLFLLYYWFVPESPRWLLSQKRTTQAVRIMEQIAQKNRKVPPADLKMMCLEEDASERRSPSFADLFRTPSLRKHTLILMYLWFSCAVLYQGLIMHVGATGANLYLDFFYSSLVEFPAAFIILVTIDRIGRIYPIAASNLVAGAACLLMIFIPHELHWLNVTLACLGRMGATIVLQMVCLVNAELYPTFIRNLGMMVCSALCDLGGIFTPFMVFRLMEVWQALPLILFGVLGLSAGAVTLLLPETKGVALPETIEEAENLGRRKSKAKENTIYLQVQTGKSPHT |  |  | 10 |  |
| Solute carrier family 22 member 2 (Mus musculus) (protein) MPTVDDILEHIGEFHLFQKQTFFLLALLSGAFTPIYVGIVFLGFTPNHHCRSPGVAELSQRCGWSPAEELNYTVPGLGSAGEVSFLSQCMRYEVDWNQSTLDCVDPLSSLAANRSHLPLSPCEHGWVYDTPGSSIVTEFNLVCAHSWMLDLFQSLVNVGFFIGAVGIGYLADRFGRKFCLLVTILINAISGVLMAISPNYAWMLVFRFLQGLVSKAGWLIGYILITEFVGLGYRRTVGICYQIAFTVGLLILAGVAYALPNWRWLQFAVTLPNFCFLLYFWCIPESPRWLISQNKNAKAMKIIKHIAKKNGKSVPVSLQSLTADEDTGMKLNPSFLDLVRTPQIRKHTLILMYNWFTSSVLYQGLIMHMGLAGDNIYLDFFYSALVEFPAAFIIILTIDRIGRRYPWAVSNMVAGAACLASVFIPDDLQWLKITVACLGRMGITIAYEMVCLVNAELYPTYIRNLAVLVCSSMCDIGGIVTPFLVYRLTDIWLEFPLVVFAVVGLVAGGLVLLLPETKGKALPETIEDAEKMQRPRKKKEKRIYLQVKKAELS |  |  | 24 | 35.7 |
